The values below come from patent publication US20050112573A1, “Method of detecting toxic substance” (priority 2001, published 2005).

The first assay concerns promoter of yeast gene YLL057c. Format: cell-based, Saccharomyces cerevisiae W303.
Conditions: not given
The source says: The inventors of the present application understood that the induction of certain yeast genes by toxic substances is caused by the activation of the promoters of the genes by the toxic substances. Thus, the inventors prepared a vector that comprised a polynucleotide sequence comprising the promoter of the yeast gene, which sequence is operably linked to a polynucleotide encoding a marker protein; and transformed yeast cells with the vector. […] The working examples hereinafter illustrate the preparation of such vectors, transformation of yeast cells by use of said vectors, and the detection of toxic substances by use of the transformed cells.
Promoter assay is a method for determining variations of the level of intracellular genes without destroying cells on the basis of the level of expressed marker genes instead of the expressed mRNA. The gene selected to detect a chemical substance is expressed in the absence of chemical substances, and thus a marker protein also occurs in the absence of chemical substances. In the method according to the present invention, the behavior of yeast genes on the addition of test materials is determined on the basis of the level of expressed marker protein so that the presence or the absence, and the kind of toxic chemical substances are predicted. Thus, it is desired that the production of marker proteins is lower in the absence of chemical substances, and the production of marker proteins is higher in the presence of chemical substances.
Type YEp shuttle vector pYES2 (pYES2, Cat no: V825-20, Invirtogen Corporation, USA), which can be replicated both in E. coli. and yeast was used as vector (R. W. Old, S. B. Primrose Principles of Gene Manipulation 5th Ed., BAIFUKAN CO., LTD, pp138-165, pp.234-263, 2000). The portion of vector PQBI 63 (Cat no.54-0082, Wako Pure Chemical Industries, Ltd.) corresponding to a marker protein GFP was used as the polynucleotide encoding GFP (SEQ ID No: 6). First, the GFP polynucleotide was inserted into the multiple cloning sites of pYES2 to give a vector. Thereafter, the GALL promoter of pYES2 was replaced with the polynucleotide comprising the promoter sequence of the intended yeast gene YLL057c (SEQ ID No: 4) to give an intended plasmid vector. Suitable restriction enzymes were selected, and the insertion of the polynucleotide comprising GFP and the promoter sequence was conducted.
Next, the yeast Saccharomyces cerevisiae W303 was transformed with the resultant plasmid vector according to the following procedures: • 1) Incubating the yeast Saccharomyces cerevisiae W303 in 200 ml of SD medium under shaking until OD 660 reaches 0.5; • 2) Suspending the collected cells in 5 ml of TE-buffer; • 3) Adding 250 μL of 2.5M lithium acetate; • 4) Dispending each 300 μl, adding 10 μl of above plasmid vector thereto, then incubating the suspensions at 30° C. for 30 minutes; • 5) Adding 700 μl of 50% PEG4000, and incubating the mixture under shaking at 30° C. for 60 minutes; • 6) Giving heat shock (42° C., 5 minutes), and then immediately cooling the mixture; • 7) Washing the mixture twice with 1M sorbitol; and • 8) Seeding it on agar plates made of minimum essential medium.
The cells of SC-YLL057C-pQBI as prepared in Example 5 were contacted to one of the following compounds. The yeast cells SC-YLL057C-pQBI were incubated at 25° C. in SD medium (Yeast nitrogen base without amino acids (Difco 0919-15)+glucose+amino acids (adenine, histidine, tryptophan)). One of toxic chemical substances as shown below was added to the cells at logarithmic growth phase, and then the cells were further incubated for two hours.
Turning to `CC(=O)O.Cc1nc(N)cc2[nH]c3ccccc3c12` [Trp-P-2 (acetate)], the Fluorescence result was “− (key: −: the number of the cells having a higher fluorescence than the control was under 1%; +: between 1% and 2%; ++: 2% or more)”.

In the case of `O=S(=O)([O-])[O-].[Cu+2]` [copper sulfate (II)], the Fluorescence result was “− (key: −: the number of the cells having a higher fluorescence than the control was under 1%; +: between 1% and 2%; ++: 2% or more)”.

Turning to `[Cl][Ni][Cl]` [nickel (II) chloride], the Fluorescence result was “− (key: −: the number of the cells having a higher fluorescence than the control was under 1%; +: between 1% and 2%; ++: 2% or more)”.

The same assay, now with this note: SC-YLL057C-pQBI cells; summary of Table 13.
With CdCl2 [(2)], the “expression of GFP” value was “induced the expression of GFP”.

As to Na2As [(1)], the “expression of GFP” value is given as “induced the expression of GFP”.

The same assay, now with this note: cells SC-YLL057C-pQBI, 2 hours incubation with the substance at the concentration printed in its row (column Concentrations); GFP fluorescence vs control without chemical.
`CCCCC(CC)COC(=O)c1ccccc1C(=O)OCC(CC)CCCC` (stereo not shown): the Fluorescence result is on record as “− (the number of the cells having a higher fluorescence than the control was under 1%)”.

Regarding `CCN(CC)C(=O)SCc1ccc(Cl)cc1` [S-4-Chlorobenzyl-N,N-diethylthiocarbamate], the Fluorescence entry is reported as “− (the number of the cells having a higher fluorescence than the control was under 1%)”.

`CCOC(=O)CC(SP(=S)(OC)OC)C(=O)OCC` (stereo not shown) [malathon]: the Fluorescence entry is given as “− (the number of the cells having a higher fluorescence than the control was under 1%)”.

`[CH3][Hg][Cl]` [methylmercury chloride]: the Fluorescence result is given as “− (the number of the cells having a higher fluorescence than the control was under 1%)”.

With `[K+].[K+].[O]=[Cr](=[O])([O-])[O][Cr](=[O])(=[O])[O-]` [potassium bichromate], the Fluorescence entry was “− (the number of the cells having a higher fluorescence than the control was under 1%)”.

On to `[Cl][Sn]([c]1ccccc1)([c]1ccccc1)[c]1ccccc1` [triphenyltin chloride], for which the Fluorescence entry is “− (the number of the cells having a higher fluorescence than the control was under 1%)”.

Regarding CdCl2 [(2)], the Fluorescence result was “++ (2% or more)”.

Take HgCl2 [(3)]: the Fluorescence result is reported as “− (the number of the cells having a higher fluorescence than the control was under 1%)”.

As for Na2As [(1)], the Fluorescence entry was “++ (2% or more)”.

Consider “manganese ethylenebis(dithiocarbamate) [(8)]”, for which the Fluorescence result is recorded as “− (the number of the cells having a higher fluorescence than the control was under 1%)”.

As for γ-hexachlorocyclohexane [(7)], the Fluorescence entry is given as “− (the number of the cells having a higher fluorescence than the control was under 1%)”.
